The source of these data is article PMC8632069 (Journal of medicinal chemistry, 2021).

For data set [1] the following is noted: mice, IV, 10 mg/kg, plasma; cited from earlier work.
For data set [2], the system named is Mfn2-null (i.e. expressing Mfn1 only) murine embryonic fibroblasts. The data set is described as follows: Mitochondrial elongation. Conditions: dose-response, compared with 2; result in words. Type of data set: cell-based, mouse.
A short description of data set [3]: Plasma and nerve tissue pharmacokinetics, single oral dose in non-fasted mice. The data set is classed as in vivo. Particulars: male, CD-1, mouse, 50 mg/kg.
Data set [4] concerns mitofusin mRNA expression. Conditions: transcriptional enhancer of mitofusin mRNA expression; cited from earlier work.

With `O=C(CCCCCc1ccccc1)N[C@H]1CC[C@H](O)CC1` [Compound 2], in data set [1], the C0 is reported as 50,600 ng/mL.
`O=C(CCCCc1ccccc1)N[C@H]1CC[C@H](O)CC1` [Compound 3, N-((1r,4r)-4-hydroxycyclohexyl)-5-phenylpentanamide]: in data set [2], the “mitofusin activation measured as ability to promote mitochondrial fusion (increased aspect ratio)” value is given as “largely abrogated mitofusin activation”.
Still for that read-out and setting: under `O=C(CCCc1ccccc1)N[C@H]1CC[C@H](O)CC1` [Compound 4, N-((1r,4r)-4-hydroxycyclohexyl)-4-phenylbutanamide] stands “largely abrogated mitofusin activation”.
Take `O=C(N[C@H]1CC[C@H](O)CC1)C1CC1CCCc1ccccc1` (stereo partly shown) [Compound 5, N-(4-hydroxycyclohexyl)-2-(3-phenylpropyl)cyclopropane-1-carboxamide]: in data set [3] (plasma), the mean residence time (MRT inf) was found to be 3.58 h and the time of peak concentration (Tmax) amounted to 0.5 h.
On to `O=C(N[C@H]1CC[C@H](O)CC1)[C@@H]1C[C@H]1CCCc1ccccc1` [Compound 5B, N-(4-hydroxycyclohexyl)-2-(3-phenylpropyl)cyclopropane-1-carboxamide], for which the Kp in data set [3] (brain and plasma) is 0.394.
Consider `Cc1oncc1C(=O)Nc1ccc(C(F)(F)F)cc1` [leflunomide], for which the effective concentrations in data set [4] was 10 to 50 µM.
